Usually EC50 stands for the concentration that produces a half-maximal response.

Results on 51 compounds are retold here after patent US11649236B2, “Polycyclic carbamoylpyridone derivative” (Shionogi & Co., Ltd., priority 2018, dated 2023).

The subject of this experiment is HIV. Kind of experiment: Anti-HIV activity (MT-4 cells, MTT). Type of experiment: cell-based. Particulars: Human immunodeficiency virus 1, MT4, 96 h, cultured 4 days. As to the method: Serial dilutions of a test sample were prepared in a 96-well microplate (50 μL/well). 2.5×10^5 cells/mL of a MT-4 cell suspension was dispensed at 100 μL/well to the plate containing the test sample. Then, an HIV virus solution was dispensed at 50 μL/well. The plate was mixed with a plate mixer and cultured for 4 days in a CO2 incubator. An MTT (3-(4,5-dimethylthiazol-2-yl)-2,5-diphenyltetrazolium bromide) solution was dispensed at 30 μL/well. The plate was reacted for 1 hour in a CO2 incubator. 150 μL of the supernatant was removed from each well so as not to take up the cells. 150 μL of a cell lysis solution was added to each well and well mixed with a plate mixer until the cells were completely lysed. The absorbance of the mixed plate was measured at two wavelengths of 560 nm and 690 nm with a microplate reader.
Regarding `CCN1C(=O)c2c(O)c(=O)c(C(=O)NCc3ccc(Cl)cc3)cn2N2CCCC[C@@H]12` [II-140], a half-maximal effect (EC50) was put at 3.6 nM. For `CCN1C(=O)c2c(O)c(=O)c(C(=O)NCc3ccc(F)cc3F)cn2N2CCC3(C[C@@H]12)OCCO3` [II-067] the value was 0.62 nM; for `CCN1C(=O)c2c(O)c(=O)c(C(=O)NCc3ccnc(Cl)c3F)cn2N2CCCC[C@@H]12` [II-062], 3.2 nM; for `CCN1C(=O)c2c(O)c(=O)c(C(=O)NCc3nccc(Cl)c3F)cn2N2CCCC[C@@H]12` [II-019], 0.23 nM.

The compound `CCN1C(=O)c2c(O)c(=O)c(C(=O)NCc3c(Cl)ccc(Cl)c3F)cn2N2CCCC[C@@H]12` [Compound I-049] returned an EC50 of 2.3 nM. Next, `CN1C(=O)c2c(O)c(=O)c(C(=O)NCc3cccc(Cl)c3F)cn2N2CC[C@H](C(F)(F)F)C[C@@H]12` [II-151]: 1.6 nM.

`CN1C(=O)c2c(O)c(=O)c(C(=O)NCc3c(F)cc(F)cc3F)cn2N2C[C@@H]3CC[C@@H](O3)[C@@H]12` [II-115] returned an EC50 of 0.87 nM. Next, `O=C(NCc1ccc(F)cc1F)c1cn2c(c(O)c1=O)C(=O)N(C[C@H]1CCCO1)[C@@H]1CCCCN12` [Compound I-022]: 1.1 nM. In turn, `CCN1C(=O)c2c(O)c(=O)c(C(=O)NCc3c(F)ccc(C#N)c3F)cn2N2CCCC[C@@H]12` [II-050] returned an EC50 of 2.8 nM.

In the case of `CCN1C(=O)c2c(O)c(=O)c(C(=O)NCc3ccc(F)cc3F)cn2N2CCNC[C@@H]12` [Compound I-010], the EC50 is 1.9 nM. `CCN1C(=O)c2c(O)c(=O)c(C(=O)NCc3ccc(F)cc3F)cn2N2C[C@H](C)C[C@@H]12` [II-123] had an EC50 of 1.6 nM.

In turn, `CCN1C(=O)c2c(O)c(=O)c(C(=O)NCc3ccc(F)cc3F)cn2N2CCCC[C@@]12CC` [II-159] showed an EC50 of 0.56 nM. Next, `CC[C@@H]1CC[C@H]2N(CC)C(=O)c3c(O)c(=O)c(C(=O)NCc4ccc(F)cc4F)cn3N12` [II-089]: 0.94 nM; `CCN1C(=O)c2c(O)c(=O)c(C(=O)NCc3ccc(F)cc3F)cn2N2Cc3ccc(F)cc3[C@@H]12` [II-079]: 0.66 nM.

Take `CCN1C(=O)c2c(O)c(=O)c(C(=O)NCc3ccc(F)cc3F)cn2N2CCC(C)(C)C[C@@H]12` [II-039]: the EC50 was found to be 2.9 nM. `CCN1C(=O)c2c(O)c(=O)c(C(=O)NCc3ccc(F)cc3F)cn2N2CCC(C)(C)[C@@H]12` [II-085] registered an EC50 of 1.3 nM.

For `CN1C(=O)c2c(O)c(=O)c(C(=O)NCc3ccc(F)c(F)c3F)cn2N2CCCC[C@@H]12` [II-074], a half-maximal response (EC50) required 0.71 nM. `COC[C@@H](C)N1C(=O)c2c(O)c(=O)c(C(=O)NCc3cccc(Cl)c3F)cn2N2CC[C@H](C)C[C@@H]12` [II-002] returned an EC50 of 0.77 nM.

In turn, `COCCCN1C(=O)c2c(O)c(=O)c(C(=O)NCc3ccc(F)cc3F)cn2N2CCCC[C@@H]12` [Compound I-024] had an EC50 of 2.9 nM. As for `CCN1C(=O)c2c(O)c(=O)c(C(=O)NCc3ccc(F)nc3F)cn2N2CCCC[C@@H]12` [II-057], the midpoint of the response, the EC50, lay at 1.7 nM. With `CCN1C(=O)c2c(O)c(=O)c(C(=O)NCc3ccc(F)cc3F)cn2N2C[C@@]3(CCOC3)C[C@@H]12` [II-149], the EC50 came to 1.2 nM.

`CCN1C(=O)c2c(O)c(=O)c(C(=O)NCc3cccc(Cl)c3F)cn2N2CCCC[C@@H]12` [Compound I-019] had an EC50 of 1.8 nM.

`CCN1C(=O)c2c(O)c(=O)c(C(=O)NCc3ccc(F)cc3F)cn2N2C[C@@H](OC)CC[C@@H]12` [II-126]: the midpoint of the response, the EC50, lay at 0.45 nM.

`O=C(NCc1ccc(F)cc1F)c1cn2c(c(O)c1=O)C(=O)N(CCCF)[C@@H]1CCCCN12` [Compound I-047] came in with an EC50 of 1.5 nM.

Compound `COC[C@@H](C)N1C(=O)c2c(O)c(=O)c(C(=O)NCc3cccc(Cl)c3F)cn2N2CCCC[C@@H]12` [II-006] had an EC50 of 0.58 nM.

The compound `CCN1C(=O)c2c(O)c(=O)c(C(=O)NCc3ccc(F)c(Cl)c3)cn2N2CCCC[C@@H]12` [Compound I-034] showed an EC50 of 1.3 nM. Next, `CCN1C(=O)c2c(O)c(=O)c(C(=O)NCc3ccc(F)c(F)c3F)cn2N2CCCC[C@@H]12` [Compound I-025]: 1.9 nM; `CCN1C(=O)c2c(O)c(=O)c(C(=O)NCc3cc(Cl)c(F)cc3F)cn2N2CCCC[C@@H]12` [Compound I-007]: 4 nM; `CCN1C(=O)c2c(O)c(=O)c(C(=O)NCc3ccc(F)cc3F)cn2N2CCOCC[C@@H]12` [II-096]: 0.68 nM. Take `CCOC[C@@H](C)N1C(=O)c2c(O)c(=O)c(C(=O)NCc3ccc(F)cc3F)cn2N2CCCC[C@@H]12` [II-034]: a half-maximal response (EC50) required 0.73 nM. `CCN1C(=O)c2c(O)c(=O)c(C(=O)NCc3ccc(F)cc3F)cn2N2CCCCC[C@@H]12` [Compound I-032] gave an EC50 of 1.2 nM. For `C[C@H]1CCN2[C@@H](C1)N(C)C(=O)c1c(O)c(=O)c(C(=O)NCc3ccc(F)cc3F)cn12` [II-113] the value was 0.72 nM; for `CCN1C(=O)c2c(O)c(=O)c(C(=O)NCc3ccc(F)cc3F)cn2N2[C@@H]3CCC[C@@H]3C[C@@H]12` [II-025], 1.1 nM. With `CCN1C(=O)c2c(O)c(=O)c(C(=O)NCc3cccc(Cl)c3F)cn2N2[C@H](C)CCC[C@@H]12` [II-032], a half-maximal response (EC50) required 1.5 nM. Next, `CCN1C(=O)c2c(O)c(=O)c(C(=O)NCc3ccc(F)cc3F)cn2N2CC[C@H](C)[C@@H]12` [II-073]: 0.25 nM.

The compound `CCN1C(=O)c2c(O)c(=O)c(C(=O)NCc3ccc(F)cc3F)cn2N2Cc3cc(F)ccc3[C@@H]12` [II-128] came in with an EC50 of 0.72 nM. Next, `O=C(NCc1ccc(F)cc1F)c1cn2c(c(O)c1=O)C(=O)N(CC(F)F)[C@@H]1CCCCN12` [Compound I-046]: 0.43 nM; `C[C@@H]1CC[C@H]2N(C)C(=O)c3c(O)c(=O)c(C(=O)NCc4cccc(Cl)c4F)cn3N12` [II-047]: 0.57 nM; `CCN1C(=O)c2c(O)c(=O)c(C(=O)NCc3ccc(F)cc3F)cn2N2C3CCC(CC3)[C@@H]12` [II-118]: 2.2 nM. `CCN1C(=O)c2c(O)c(=O)c(C(=O)NCc3ccc(F)nc3F)cn2N2CC[C@H](C)C[C@@H]12` [II-081]: the EC50 was found to be 3.1 nM. Consider `CCN1C(=O)c2c(O)c(=O)c(C(=O)NCc3c(F)cc(F)cc3OC)cn2N2CCCC[C@@H]12` [II-035], for which the midpoint of the response, the EC50, lay at 1.3 nM.

For the compound `O=C(NCc1ccc(F)cc1F)c1cn2c(c(O)c1=O)C(=O)N(CCF)[C@@H]1CCCCN12` [Compound I-045], the EC50 came to 0.73 nM. Next, `C[C@H]1CC[C@H]2N(C)C(=O)c3c(O)c(=O)c(C(=O)NCc4c(F)cc(F)cc4F)cn3N2C1` [II-007]: 0.62 nM; `CCN1C(=O)c2c(O)c(=O)c(C(=O)NCc3cc(F)c(F)cc3F)cn2N2CCCC[C@@H]12` [Compound I-036]: 1.4 nM. Compound `CCN1C(=O)c2c(O)c(=O)c(C(=O)NCc3ccc(F)cc3F)cn2N2CCc3ccccc3[C@@H]12` [Compound I-027] came in with an EC50 of 0.89 nM.

`CCN1C(=O)c2c(O)c(=O)c(C(=O)NCc3ccc(F)cc3F)cn2N2C[C@H]3C[C@H](C3)[C@@H]12` [II-037] gave a concentration giving a half-maximal response (EC50) of 0.64 nM. Next, `CN1C(=O)c2c(O)c(=O)c(C(=O)NCc3ccc(F)cc3F)cn2N2C[C@@H]3CC[C@@H](C3)[C@@H]12` [II-122]: 0.61 nM; `CCN1C(=O)c2c(O)c(=O)c(C(=O)NCc3ccc(F)cc3F)cn2N2CCN(c3ncccn3)C[C@@H]12` [II-146]: 1.6 nM; `COC[C@@H]1CC[C@H]2N(C(C)C)C(=O)c3c(O)c(=O)c(C(=O)NCc4c(F)cc(F)cc4F)cn3N12` [II-011]: 0.49 nM.

`CCN1C(=O)c2c(O)c(=O)c(C(=O)NCc3c(F)ccc(F)c3F)cn2N2CCCC[C@@H]12` [II-080] returned an EC50 of 0.58 nM. Next, `CCN1C(=O)c2c(O)c(=O)c(C(=O)NCc3c(F)cccc3F)cn2N2CCCC[C@@H]12` [II-082]: 0.74 nM.
